Laboratory results as given in patent US20250320246A1, “3-AZASTEROID COMPOUNDS FOR THE TREATMENT OF DISEASES RELATED TO MITROCHONDRIAL FUNCTION” (NZP UK LIMITED, priority 2022, published 2025).

What was measured:
Assay type in all cases: cell-based, human
[1] = system: sporadic PD patient fibroblasts; experiment: Mitochondrial membrane potential (MMP, TMRM) in sporadic PD patient fibroblasts; conditions: Homo sapiens, Fibroblast, 24 h, 3 sporadic PD patient fibroblasts
Description: (§1) Primary fibroblast cells were cultured continuously in Glucose based medium (high glucose (4500 mg/L) Dulbecco's Modified Eagle's medium (DMEM; Sigma-Aldrich) supplemented with 10% fetal bovine serum (Sigma-Aldrich), 100 IU/mL penicillin, 100 μg/mL streptomycin (Lonza), 1 mM sodium pyruvate (Sigma-Aldrich) and 50 μg/mL uridine (Sigma-Aldrich)). Unless otherwise stated, 24 hours prior to analysis, the Glucose based medium was exchanged for Galactose based medium (glucose-free DMEM (Gibco) with the same supplementation and in addition, 5 mM galactose (Sigma-Aldrich)). All cells were assessed between passage 6-10.
Fibroblasts were cultured and plated into a greiner black 384 μClear® plate at a concentration of 1000 cells per well in 50 μl of media volume. The plates are left overnight in an incubator to allow the fibroblasts to adhere to the plate surface. The following morning the Glucose based medium is replaced with 25 μl of Galactose based medium. The plates were then dosed with the compounds using an ECHO® 550 liquid handling system. The wells were dosed to provide an 8-point concentration range of 0.06 nM-300 nM of compound. After dosing the wells are topped up with a further 25 μl of Galactose based medium and then left in an incubator for 24 hours. After 24 hours, the medium is removed from the wells and replaced with 25 μl phenol free Minimal essential medium supplemented with 10% FBS, 1% Penicillin-streptomycin, 1% sodium pyruvate, 0.1% uridine, 1% non-essential amino acids and 1% MEM vitamins with 80 nM TMRM (Sigma) and 10 μM Hoechst Stain (Sigma). The plate is returned to the incubator for another hour after which the stain medium is removed and replaced with 25 μl Phenol free MEM. The plate is then imaged using an IN Cell high content microscope (GE Healthcare) with fields of view per well in 2 channels, Cy3 excitation 542 nm, emission 604-64 nm; and the DAPI excitation 350 nm, emission 450-55 nm at 37° C. with CO2. After imaging the plate is disposed of and the images are Data mined using the INCell developer Toolkit (GE Healthcare).
After the assays had been repeated in triplicate per line and compound the data was then inputted into Graph pad Prism 7 software suite where a dose response curve is generated using the default “[Agonist] vs response(three parameters)” equation. […]

[2] = system: sporadic PD patient fibroblasts; experiment: Cellular ATP levels in sporadic PD patient fibroblasts, full ATP assay; conditions: Homo sapiens, Fibroblast, 24 h, 3 sporadic PD patient fibroblasts
Description: as §1
The ATP protocol is generally as described in Mortiboys et al 2008. Briefly, fibroblasts were cultured as and plated into white 384 well plates at a concentration of 5000 cells per well in 50 μl of media volume. The plates are left overnight in an incubator to allow the fibroblasts to adhere to the plate surface. The following morning the Glucose based medium is replaced with 25 μl of Galactose based medium. The plates were then spiked with the compounds using a ECHO 550 liquid handling system. The wells were dosed to provide an 8-point concentration range of 0.06 nM-300 nM of compound. After dosing the wells are topped up with a further 25 μl of Galactose based medium and then left in an incubator for 24 hours. Following this incubation, the medium is removed from the plate and the wells are washed twice with sterile PBS. The wells are filled with 25 μl of Sterile PBS followed by 12.5 μl of Lysis solution from the ATPlite™ Luminescence ATP detection assay system (Perkin Elmer), including 16 cell free wells to use as blank controls. The plate is then placed on a rotary shaker for 5 mins at 700 rpm. Following the shaking 12.5 μl of ATP substrate solution (Perkin Elmer) is added to each well and a further 5 min of shaking. The plate is then placed in darkness for 10 minutes prior to reading. Using a PHERAStar® plate reader, luminescence intensity is recorded. Following the ATP assay the plates are immediately assayed for DNA content in a CyQUANT® assay.
(§2) Immediately following The ATP assay DNA content is assessed with the CyQUANT® NF Cell Proliferation Assay Kit (ThermoFisher). CyQUANT® buffer is prepared immediately before the assay and is comprised of 1 μl CyQUANT® dye per ml×1 HBSS solution. 12.5 μl of CyQUANT® buffer is added to each well. Plate left in incubator for 1 hour then read on a PHERAStar© Plate reader with excitation at 497 nm and emission at 520 nm.
ATP Quantification for each well is determined using the following formula: […]
After the assays had been repeated in triplicate per line and compound the data was then inputted into Graph pad Prism 7 software suite where a dose response curve is generated using the default “[Agonist] vs response(three parameters)” equation.
From this EC50 values, lowest response and maximal response were taken and used to calculate the Geometric mean between the 5 different lines assessed.

[3] = system: iNeurons from sPD patients; experiment: Cellular ATP in iNeurons (dopaminergic neurons derived from sPD patients); conditions: for EC50: Homo sapiens, Neuron, sPD patient iNeurons, dosing every 3 days for last 12 days of differentiation; for ATP normalisation (% of controls): sPD patient iNeurons treated, untreated sPD patients 50
Description: (§3) The fibroblasts lines and iNPC lines have previously been characterised and published in Carling et al, 2020.
(§4) Briefly, iNPCs are plated in a 6-well plate and cultured for 2 days in DMEM/F-12 medium with Glutamax™ supplemented with 1% NEAA, 2% B27 (Gibco) and 2.5 μM of DAPT. On day 3, DAPT is removed and the medium is supplemented with 1 μM smoothened agonist (SAG) and FGF8 (75 ng/ml) for additional 10 days. Neurons are replated at this stage. Subsequently SAG and FGF8 are withdrawn and replaced with BDNF (30 ng/ml), GDNF (30 ng/ml), TGF-b3 ([…]) and dcAMP (2 mM, Sigma) for 15 days, as previously described Schwartzentruber et al, 2020 and Carling et al, 2020. Dopaminergic neurons were treated with compounds at concentrations of 0.1 nM, 1 nM, 3 nM, 10 nM, 30 nM and 100 nM dosing every 3 days for the last 12 days of differentiation.
(§5) iNeurons were treated every 3 days for the last 12 days of the differentiation protocol. Cells are plated in 96 well plates; for live imaging cells are incubated for one hour at 37° C. with 80 nM tetramethlyrhodamine (TMRM), 1 μM LysoTracker® Green (Invitrogen) and Hoechst Stain solution (Sigma) at 1 μM before imaging using Opera Phenix™. Cellular ATP measurements are undertaken using ATPlite kit (Perkin Elmer) as per manufacturer's instructions. Mitochondrial reactive oxygen species generation was assessed using mitochondrial NpFR2 (probe; a kind gift from Dr Liz New, University of Sydney, Australia) at 20 μM and Hoechst stain solution at 1 μM for 30 mins at 37° C., then the dyes are removed and cells images using Opera Phenix™. Images generated from the live imaging experiments were analysed using Harmony® (Perkin Elmer software). We developed protocols in order to segment nucleus, cell boundary and processes, mitochondria, lysosomes, autophagosomes. We only analysed the z projection images collected from the z stacks.

[4] = system: iNeurons from sPD patients; experiment: Mitochondrial membrane potential (MMP) in iNeurons from sPD patients; conditions: for EC50: Homo sapiens, sPD patient iNeurons, dosing every 3 days for last 12 days of differentiation; for MMP normalisation (% of controls): sPD patient iNeurons treated, untreated sPD patients 52
Description: as §3, §4, §5

[5] = system: iNeurons from sPD patients; experiment: Mitochondrial reactive oxygen species (ROS) in iNeurons from sPD patients; conditions: sPD patient iNeurons treated; untreated sPD patients 115
Description: as §3, §4, §5

[6] = system: sporadic PD patient fibroblasts; experiment: Cellular ATP levels in sporadic PD patient fibroblasts, Preliminary ATP assay; conditions: Homo sapiens, Fibroblast, 24 h, % of vehicle treated sPD fibroblasts, 3 sporadic PD patients
Description: In some cases, a preliminary ATP protocol was used in which EC50 was not determined. The preliminary ATP protocol is generally as described in Mortiboys et al 2008. Briefly, fibroblasts were cultured and plated into white, clear-bottom 384 well plates at a concentration of 4000 cells per well in 50 μl of media volume. The plates are left overnight in an incubator to allow the fibroblasts to adhere to the plate surface. The following morning the Glucose based medium is replaced with 25 μl of Galactose based medium. The cells were then dosed with 100 nM and 1 μM concentrations of the compounds using a ECHO 550 liquid handling system. After dosing the wells are topped up with a further 25 μl of Galactose based medium and then left in an incubator for 24 hours. Following this incubation, the medium is removed from the plate and the wells are washed twice with sterile PBS. The wells are filled with 20 μl of Sterile PBS followed by 10 μl of Lysis solution from the ATPlite™ Luminescence ATP detection assay system (Perkin Elmer), including 14 cell free wells to use as blank controls. The plate is then placed on a rotary shaker for 10 mins at 700 rpm. Following the shaking 10 μl of ATP substrate solution (Perkin Elmer) is added to each well and a further 5 min of shaking. The plate is then incubated in the dark for 10 minutes prior to reading. Using a FLUOstar® Omega plate reader, luminescence intensity is recorded. Following the ATP assay the plates are immediately assayed for DNA content in a CyQUANT® assay.
as §2, with “of 2” for “of 1”, “solution. 10” for “solution. 12.5”, “well. Cell plates were then incubated” for “well. Plate left in incubator”, “hour before being” for “hour then”, “a FLUOStar®” for “a PHERAStar©”
The ATP Quantification for each well is determined as set out above.

[7] = system: iNeurons from sPD patients; experiment: Neuronal morphology (elongation) in iNeurons from sPD patients; conditions: sPD patient iNeurons treated; untreated sPD patients 48
Description: as §3, §4
(§6) Cells are plated into 96 well plates and fixed using 4% paraformaldehyde for 30 minutes. After PBS washes cells are permeabilised using 0.1% Triton™ X-100 for 10 minutes and blocked using 5% goat serum for 1 hour. Cells are incubated with primary antibodies βIII tubulin (Millipore); activated caspase 3 (Cell Signaling); at 4° C. for 16 hours. Cells are washed using PBS-Tween® and incubated with Alexa Fluor™-conjugated secondary antibodies 488 and 568 (Invitrogen) and Hoescht (Sigma) 1 μM prior to imaging. Imaging was performed using the Opera Phenix™ high content imaging system (Perkin Elmer).
iNeurons were treated every 3 days for the last 12 days of the differentiation protocol. […] Mitochondrial reactive oxygen species generation was assessed using mitochondrial NpFR2 (probe; a kind gift from Dr Liz New, University of Sydney, Australia) at 20 μM and Hoechst stain solution at 1 μM for 30 mins at 37° C., then the dyes are removed and cells images using Opera Phenix™. Images generated from the live imaging experiments were analysed using Harmony® (Perkin Elmer software). […] We only analysed the z projection images collected from the z stacks.

[8] = system: iNeurons from sPD patients; experiment: Activated caspase 3 levels (apoptosis) in iNeurons from sPD patients; conditions: sPD patient iNeurons treated; untreated sPD patients 162
Description: as §3, §4, §6

Structure (SMILES)	EC50 ([1]; 8-point range 0.06 nM-300 nM) [nM]	Emax ([1]; max response with highest dose of compound (300 nM), read-out: MMP % of vehicle, top %) [%]	activity at 60 pM ([1]; max response with lowest dose of compound (0.06 nM), read-out: MMP % of vehicle, bottom %) [%]	EC50 ([2]; 8-point range 0.06 nM-300 nM) [nM]	Emax at 0.3 µM ([2]; max response with highest dose of compound (300 nM), read-out: ATP % of vehicle, top %) [%]	activity at 60 pM ([2]; max response with lowest dose of compound (0.06 nM), read-out: ATP % of vehicle, bottom %) [%]	EC50 [3] [nM]	ATP normalisation (% of controls) [3]	EC50 [4] [nM]	MMP normalisation (% of controls) [4]	ROS normalisation (% of controls) [5]	activity at 0.1 µM ([6]; 100 nM, read-out: Average ATP Response 100 nM) [%]	activity at 1 µM ([6]; 1 μM, read-out: Average ATP Response 1 μM) [%]	Neuronal morphology (elongation; % controls) [7] [% controls]	Activated caspase 3 levels [8]
C[C@H](CCC(=O)O)[C@H]1CC[C@H]2[C@@H]3[C@@H](O)C[C@@H]4CNCC[C@]4(C)[C@H]3CC[C@]12C.Cl [Compound 28a, 3-Aza-7β-hydroxy-5β-cholan-24-oic acid hydrochloride salt]	4.58	120	96.8	10.9	137	98.3	6.5	89.6 % of controls	10.3	71 % of controls	111 % of controls	–	–	–	–
C[C@H](CCC(=O)O)[C@H]1CC[C@H]2[C@@H]3[C@@H](O)C[C@@H]4C[C@H](O)CC[C@]4(C)[C@H]3CC[C@]12C [UDCA, ursodeoxycholic acid, reference compound]	–	–	–	–	–	–	5	82 % of controls	7.3	73 % of controls	110 % of controls	105	98.9	64	143 % of level in iNeurons from Controls
